#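 Values below derive from 48-hour exposures of cells grown in 96-well plates, with endpoints linearly interpolated between the two concentrations bracketing the appropriate inhibition level. GI50: concentration for 50% inhibition of growth. TGI is the concentration that stops growth completely.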
# Assays:
# Assay in all cases: NCI anticancer screen, dose series, 48 h
# MDA-MB-231 breast = test system: MDA-MB-231 breast
# RXF 393 renal = test system: RXF 393 renal
# IGROV1 ovarian = test system: IGROV1 ovarian
# EKVX NSCLC = test system: EKVX NSCLC
# HCT-116 colon = test system: HCT-116 colon
# UACC-257 melanoma = test system: UACC-257 melanoma
# HOP-62 NSCLC = test system: HOP-62 NSCLC
# LOX IMVI melanoma = test system: LOX IMVI melanoma
# SF-539 CNS = test system: SF-539 CNS
# HCT-15 colon = test system: HCT-15 colon
SMILES,TGI (MDA-MB-231 breast) [µM],TGI (RXF 393 renal) [µM],TGI (IGROV1 ovarian) [µM],TGI (EKVX NSCLC) [µM],TGI (HCT-116 colon) [µM],TGI (UACC-257 melanoma) [µM],TGI (HOP-62 NSCLC) [µM],TGI (LOX IMVI melanoma) [µM],TGI (SF-539 CNS) [µM],TGI (HCT-15 colon) [µM],GI50 (MDA-MB-231 breast) [µM],GI50 (RXF 393 renal) [µM],GI50 (IGROV1 ovarian) [µM],GI50 (EKVX NSCLC) [µM],GI50 (UACC-257 melanoma) [µM],GI50 (HOP-62 NSCLC) [µM],GI50 (LOX IMVI melanoma) [µM],GI50 (SF-539 CNS) [µM],GI50 (HCT-15 colon) [µM],GI50 (HCT-116 colon) [µM]
Nc1ccc2c(c1)NCCN2,> 100,> 100,> 100,> 100,> 100,> 100,> 100,> 100,> 100,> 100,,,,,,,,,,
OCCSCc1ccccc1,> 100,> 100,> 100,> 100,> 100,> 100,> 100,> 100,> 100,> 100,,,,,,,,,,
COc1cc(/C=C\[N+](=O)[O-])ccc1OCc1ccccc1,5.55,3.73,7.6,17.6,,5.83,6.58,2.3,4.18,3.51,1.85,1.8,2.48,3.71,2.08,2.35,1,2.09,1.72,
COc1cc(/C=C2\CC3C4CC=C5C[C@@H](OC(C)=O)CC[C@]5(C)C4CC[C@]3(C)C2=O)ccc1OCCCn1ccnc1 (some centres undefined),15.4,30.3,46.8,5.18,29.6,22.5,16.4,15.5,14.2,20.4,8.05,13,13.7,0.0741,10.4,8.83,8.63,6.89,9.52,13.4
O=[N+]([O-])c1ccc(N/N=C/c2c(O)ccc3ccccc23)nc1,> 100,> 100,> 100,> 100,> 100,> 100,> 100,> 100,> 100,> 100,15.9,> 100,7.48,6.5,8.75,6.82,1.26,11.1,0.655,3.16
CC[C@@]1(O)C(=O)NCc2c1cc1n(c2=O)Cc2cc3c(N)cccc3nc2-1,> 60.3,24.9,> 100,> 51.7,44.2,> 79.5,,9.5,10.9,> 100,16.4,5.35,10.1,16.5,6.15,0.973,0.468,1.04,11.5,1.22
O=c1nc(Nc2cccc(Cl)c2)oc2cc(Cl)oc(=O)c12,30.9,8.52,21.1,39.8,41.3,23.9,31.4,> 100,21,28.3,5.78,3.22,5.13,16.9,10.3,11,11.9,4,5.82,10.7
C=C1C(=O)OC2CC1C(O)C/C(C)=C/CC/C(C)=C/C(O)CC2C (centres undefined),12.4,2.96,9.3,5.81,3.33,10.3,25.2,2.74,6.55,4.95,,,,,,,,,,
Cc1sc(C)c(Cc2c(C)sc(C)c2CCl)c1CCl,> 100,> 100,> 100,> 100,> 100,> 100,> 100,> 100,> 100,> 100,> 100,> 100,> 100,> 100,> 100,> 100,> 100,> 100,> 100,> 100
N#Cc1c(-c2ccccc2)cc(-c2ccc(Nc3nc(Nc4ccc(Cl)cc4)nc(Nc4ccc(Cl)cc4)n3)cc2)nc1N,4.89,4.72,2.67,48.8,3,4.47,35,4.33,3.24,5.1,1.76,1.78,1.34,16.6,1.92,19.1,1.85,1.69,1.56,1.48
Cn1ccn2c3nc4ccccc4nc3c(=O)c(C#N)c12,> 100,> 100,> 100,> 100,> 100,> 100,,> 100,> 100,> 100,,,,,,,,,,
COCCOC(=O)NC(=O)Nc1ccc(/C(=N/O)c2ccc(Cl)cc2)cc1,11,3.2,> 69,> 89.8,23.6,48.9,41.2,23.7,0.341,19.8,0.166,0.0866,0.269,0.161,13,0.127,0.144,0.121,0.0842,0.112
COc1ccc(/C=C/c2nc(NCCCN(C)C)c3ccccc3n2)cc1,5.24,12.1,10.6,21.1,5.88,3.65,9.74,3.42,3.15,30.8,1.99,3.68,3.39,5.17,1.87,5.16,1.83,1.69,16.3,2.3
Nc1ccc(S(=O)(=O)C23CC4CC(CC(C4)C2)C3)cc1,> 100,79.4,> 100,> 100,> 100,> 100,> 100,> 100,> 100,> 100,,,,,,,,,,
Cn1c(=O)c(Oc2ccccc2F)cc2cnc(NC3CCOCC3)nc21,> 25,> 25,> 25,,> 25,> 25,> 25,> 25,> 25,> 25,> 25,> 25,> 25,,> 25,> 25,> 25,> 25,> 25,> 25

# Source: PubChem BioAssay (NCI)
